Numbers after ± are expanded uncertainties.
Experiments:
[1] = xn = mol fraction of the nth substance listed; conditions: 101.3 kPa, Liquid
[2] = refractive index (Na D-line) (dimensionless); xn = mol fraction of the nth substance listed; conditions: 101.3 kPa, Liquid

CCOC=O [ethyl methanoate] + Cc1ccc(C)cc1
Conditions	mass density, [1] [kg/m3]	refractive index, [2]	viscosity, [1] [mPa·s]
303.15 K, x1 = 0.1658	857.7 ± 3.5	1.4785 ± 0.0099	0.523 ± 0.015
303.15 K, x1 = 0.2572	861.1 ± 3.5	1.4746 ± 0.0099	0.503 ± 0.014
303.15 K, x1 = 0.4068	868.2 ± 3.5	1.4671 ± 0.0099	0.472 ± 0.014
303.15 K, x1 = 0.5039	871.6 ± 3.6	1.4532 ± 0.0099	0.452 ± 0.013
303.15 K, x1 = 0.6037	878.8 ± 3.6	1.451 ± 0.0099	0.434 ± 0.013
303.15 K, x1 = 0.6916	883.4 ± 3.6	1.4239 ± 0.01	0.418 ± 0.012
303.15 K, x1 = 0.7854	889.6 ± 3.7	1.4121 ± 0.0099	0.403 ± 0.012
303.15 K, x1 = 0.8588	896 ± 3.7	1.3901 ± 0.0099	0.39 ± 0.012
303.15 K, x1 = 0.9381	902.9 ± 3.7	1.3711 ± 0.0099	0.375 ± 0.011
313.15 K, x1 = 0.1658	849 ± 3.8	1.4779 ± 0.0099	0.477 ± 0.014
313.15 K, x1 = 0.2572	851.7 ± 3.8	1.4732 ± 0.0099	0.451 ± 0.013
313.15 K, x1 = 0.4068	858.8 ± 3.9	1.4611 ± 0.0099	0.424 ± 0.012
313.15 K, x1 = 0.5039	861.8 ± 3.9	1.4499 ± 0.0099	0.407 ± 0.012
313.15 K, x1 = 0.6037	868.8 ± 3.9	1.4491 ± 0.01	0.393 ± 0.012
313.15 K, x1 = 0.6916	873.5 ± 3.9	1.4201 ± 0.0099	0.38 ± 0.011
313.15 K, x1 = 0.7854	877.8 ± 4	1.4091 ± 0.0099	0.371 ± 0.011
313.15 K, x1 = 0.8588	884.7 ± 4	1.3891 ± 0.0099	0.36 ± 0.011
313.15 K, x1 = 0.9381	891 ± 4	1.3689 ± 0.0099	0.348 ± 0.011

CCOC=O [ethyl methanoate] + Cc1cccc(C)c1
Conditions	mass density, [1] [kg/m3]	refractive index, [2]	viscosity, [1] [mPa·s]
303.15 K, x1 = 0.1348	858.3 ± 3.5	1.4892 ± 0.0099	0.524 ± 0.015
303.15 K, x1 = 0.2728	863.3 ± 3.5	1.4695 ± 0.0099	0.494 ± 0.014
303.15 K, x1 = 0.3968	868.7 ± 3.5	1.4561 ± 0.0099	0.467 ± 0.013
303.15 K, x1 = 0.4988	873.1 ± 3.6	1.4391 ± 0.0099	0.449 ± 0.013
303.15 K, x1 = 0.6032	877.7 ± 3.6	1.4288 ± 0.0099	0.43 ± 0.013
303.15 K, x1 = 0.6923	882.8 ± 3.6	1.4265 ± 0.0099	0.414 ± 0.012
303.15 K, x1 = 0.7867	888.4 ± 3.6	1.4055 ± 0.0099	0.398 ± 0.012
303.15 K, x1 = 0.8591	895 ± 3.7	1.3875 ± 0.01	0.386 ± 0.012
303.15 K, x1 = 0.9379	900.1 ± 3.7	1.3856 ± 0.0099	0.373 ± 0.011
313.15 K, x1 = 0.1348	849.8 ± 3.8	1.482 ± 0.0099	0.479 ± 0.014
313.15 K, x1 = 0.2728	854.4 ± 3.8	1.4679 ± 0.0099	0.453 ± 0.013
313.15 K, x1 = 0.3968	859.5 ± 3.8	1.4578 ± 0.0099	0.431 ± 0.013
313.15 K, x1 = 0.4988	864.3 ± 3.9	1.438 ± 0.0099	0.412 ± 0.012
313.15 K, x1 = 0.6032	869.2 ± 3.9	1.4276 ± 0.0099	0.397 ± 0.012
313.15 K, x1 = 0.6923	874.3 ± 3.9	1.4253 ± 0.0099	0.384 ± 0.012
313.15 K, x1 = 0.7867	880.1 ± 3.9	1.4043 ± 0.0099	0.369 ± 0.011
313.15 K, x1 = 0.8591	884.1 ± 4	1.385 ± 0.0099	0.357 ± 0.011
313.15 K, x1 = 0.9379	889.7 ± 4	1.3841 ± 0.0099	0.347 ± 0.011

CCOC=O [ethyl methanoate] + Cc1ccccc1C
Conditions	mass density, [1] [kg/m3]	refractive index, [2]	viscosity, [1] [mPa·s]
303.15 K, x1 = 0.1467	872.7 ± 3.5	1.4906 ± 0.0099	0.63 ± 0.017
303.15 K, x1 = 0.2667	877.4 ± 3.6	1.4873 ± 0.0099	0.586 ± 0.016
303.15 K, x1 = 0.3779	880 ± 3.6	1.4786 ± 0.0099	0.544 ± 0.015
303.15 K, x1 = 0.4984	882.6 ± 3.6	1.4721 ± 0.0099	0.502 ± 0.014
303.15 K, x1 = 0.5936	886.9 ± 3.6	1.4631 ± 0.0099	0.471 ± 0.014
303.15 K, x1 = 0.694	891.2 ± 3.7	1.4347 ± 0.01	0.444 ± 0.013
303.15 K, x1 = 0.7791	896.7 ± 3.7	1.4072 ± 0.0099	0.42 ± 0.012
303.15 K, x1 = 0.8563	901.2 ± 3.7	1.3981 ± 0.0099	0.4 ± 0.012
303.15 K, x1 = 0.9337	903.7 ± 3.8	1.3729 ± 0.0099	0.378 ± 0.011
313.15 K, x1 = 0.1467	864.6 ± 3.9	1.4896 ± 0.0099	0.558 ± 0.015
313.15 K, x1 = 0.2667	868.5 ± 3.9	1.4819 ± 0.0099	0.521 ± 0.015
313.15 K, x1 = 0.3779	871.9 ± 3.9	1.4735 ± 0.0099	0.487 ± 0.014
313.15 K, x1 = 0.4984	873.7 ± 3.9	1.4671 ± 0.0099	0.452 ± 0.013
313.15 K, x1 = 0.5936	876.9 ± 3.9	1.4612 ± 0.01	0.43 ± 0.013
313.15 K, x1 = 0.694	881.6 ± 4	1.4216 ± 0.0099	0.402 ± 0.012
313.15 K, x1 = 0.7791	885.9 ± 4	1.4061 ± 0.0099	0.382 ± 0.012
313.15 K, x1 = 0.8563	889.6 ± 4	1.3969 ± 0.0099	0.366 ± 0.011
313.15 K, x1 = 0.9337	891.1 ± 4.1	1.3701 ± 0.0099	0.359 ± 0.011
